According to PubChem BioAssay AID179 (DTP/NCI, 2004):
Values joined by “and” are separate entries in the source; they are usually repeats but may differ in a detail not shown here. Equal entries are not always repeated. Active and inactive are the calls of the source.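 Rule for the calls: active = compounds giving half or more protection of infected cells from virus-caused growth loss, again on retest; inactive = the rest.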

Tested on: CEM cells HIV-1 protection, formazan growth assay
Test: NCI AIDS Antiviral Assay
Settings: for IC50: measured here: growth of uninfected CEM cells
Outline: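 Screen of anti-HIV-1 activity in human CEM cells using a formazan-based growth measurement at five drug concentrations. Hits with 50% or greater protection were repeated, and confirmation required reproducible complete protection.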

| SMILES | EC50 [µM] | IC50 | outcome |
| --- | --- | --- | --- |
| C[N+](C)(C)CC(=O)N/N=C(/C=C/c1ccccc1)CC1OC(=O)c2ccccc21 (configuration not stated) | > 589 | > 589 µM | – |
| COC(=O)/C=C1\CC(C)C2=C(N1)SCC2=O (configuration not stated) | > 355 | 138 µM | – |
| COc1cc2c(cc1O)C(C)Cc1cc3c(cc1N(C)CC2)OCO3 (configuration not stated) | > 117 | 2.24 µM | – |
| OC1C=CC2C(CC1)C1(c3ccccc3)OC2(c2ccccc2)c2ccccc21 (configuration not stated) | – | – | inactive |
| N#C/C(=C\c1cc(F)cc(F)c1)c1ccccn1 | > 200 | 26.3 µM | – |
| N=c1oc2ccc(Cl)cc2cc1C(=O)Nc1ccccc1 | > 151 | 21.9 µM | – |
| CCOC(=O)CCNC(=O)c1cc(C)cc2c1Oc1c(cc(C)cc1C(=O)NCCC(=O)OCC)S2 | > 200 | 29.5 µM | – |
| CCO/C=C1\C(=O)N(C(C)=O)c2cc(OC)c(OC)cc21 | > 200 | 26.9 µM | – |
| CN(CC1NCCCC1O)C12CC3CC(CC(C3)C1)C2 (configuration not stated) | > 891 | > 891 µM | – |
| c1ccc2c(c1)SCCc1nncn1-2 | > 437 | > 437 µM | – |
| C[N+](C)(C)CC1CCCC(C[N+](C)(C)C)C1=O (configuration not stated) | – | – | inactive |
| O=C1/C(=C/c2ccccc2)CN(C(=O)Oc2ccccc2)C/C1=C\c1ccccc1 | – | – | inactive |
| CC(=O)Nc1cccc(N2C(=O)/C(=C\c3cccc(Oc4ccccc4)c3)SC2c2ccccc2)c1 (configuration not stated) | > 200 | 30.9 µM | – |
| CN(C)c1ccc(/C=C2/Oc3ccc(Cl)cc3C2=O)cc1 | > 4.79 | > 4.79 µM | – |
| COC(=O)/C=C1\C=CC=CC12C(C(=O)OC)c1ccccc1C(C(=O)OC)C2C(=O)OC (configuration not stated) | > 200 | > 200 µM | – |
| CCc1n[nH]c(=O)n1CCO | – | – | inactive |
| NS(=O)(=O)c1ccc(NC(=O)Nc2ccc(F)cc2)cc1 | > 200 | 74.1 µM | – |
| Cc1ccc2[nH]c3c(c2c1)CCC/C3=N/N=C(N)N | > 20 | 3.02 µM | – |
| CC1=C2CCCC2C/C(=N/Nc2ccc([N+](=O)[O-])cc2[N+](=O)[O-])CC1 (configuration not stated) | – | – | inactive |
| CCCCCCCCCCCCCCCC=C(c1cc(Cl)c(OC)c(C(=O)O)c1)c1cc(Cl)c(OC)c(C(=O)O)c1 | > 1200 | 26.3 µM and 52.5 µM | – |
| O=C1CCCc2cc3c(cc21)CCC3C(=O)O (configuration not stated) | – | – | inactive |
| [CH3][Ga]([CH3])[n]1cccn1 | > 562 | 74.1 µM | – |

| SMILES | EC50 [µM] | IC50 | outcome |
| --- | --- | --- | --- |
| Cc1ccc(NC(=O)CCc2cc(C(C)(C)C)nc(NC#N)n2)cc1C | – | – | inactive |
| COc1cc(OC)c2c(c1)OC1OC(=O)CC21 (configuration not stated) | > 209 | > 209 µM | – |
| Cc1ccc(NC(=O)c2cc(S(=O)(=O)Nc3nc4ncccc4[nH]3)c(SSc3cc(Cl)c(C(=O)Nc4ccc(C)cc4)cc3S(=O)(=O)Nc3nc4ncccc4[nH]3)cc2Cl)cc1 | > 200 | > 200 µM | – |
| O=C(CCN1CCCCC1)N1CCc2c([nH]c3ccccc23)C1c1cccnc1 (configuration not stated) | > 13.5 | > 13.5 µM | – |
| CCOC(=O)/C(=C\c1cccs1)P(=O)(OCC)OCC | > 794 | 41.7 µM | – |
| CN(C)c1ncnc2c1Cc1ccccc1C(=O)N2C | 60.3 | 407 µM | – |
| C=CCN=C([S-])Nc1cccc(C(=O)O)c1.[Au+].[Na+] | – | – | inactive |
| O=C(O)CCCNS(=O)(=O)c1ccccc1 | – | – | inactive |
| Nc1nc2c(-c3ccc([N+](=O)[O-])cc3)nnn2c2cccc(Cl)c12 | > 3.98 | > 3.98 µM | – |
| CC(=O)C(CN(C(C)C)C(C)C)C(c1ccccc1)c1c(O)c2ccccc2oc1=O (configuration not stated) | > 85.1 | 75.9 µM | – |
| COc1cccc(Nc2nc(N)nc(N)c2N=O)c1 | > 200 | 11.2 µM | – |
| O=C(Cc1ccccc1)N/N=C(/c1nc2ccc([N+](=O)[O-])cc2[nH]c1=O)C(O)c1ccco1 (configuration not stated) | > 209 | > 209 µM | – |
| O=C1c2ccccc2C(=O)c2c1sc1nc3ccccc3n21 | > 200 | 8.91 µM | – |
| [O-]c1on[n+](-c2ccccc2)c1-c1ccccc1 | > 151 | 74.1 µM | – |
| NC(=O)c1c(Cl)nc2n1CCS2 | > 200 | > 200 µM | – |
| CN(C)C(=C1c2cc([N+](=O)[O-])ccc2-c2ccc([N+](=O)[O-])cc21)N(C)C | > 200 | 10.7 µM | – |
| O=c1c2ccc3cccc4c(=O)cc(c5ccccc15)-c2c34 | – | – | inactive |
| Nc1nc(NNc2cccc(F)c2)cc(=O)[nH]1 | > 200 | 16.6 µM | – |
| CC/C(SC)=[N+](\C)[O-] | > 955 | 174 µM | – |
| COc1ccc(-n2c(SC(CN3CCOCC3)CN3CCCC3=O)nc3ccccc3c2=O)cc1 (configuration not stated) | > 200 | 56.2 µM | – |
| CCOC(=O)c1nc2ccccc2nc1Oc1ccc(OC)cc1 | > 200 | > 200 µM | – |
| C/C=C1\CN(C)C2Cc3c([nH]c4ccccc34)C(c3cc4c5c([nH]c4cc3OC)C3(C(=O)OC)CC4CC(CC)C3N(CC5)C4)CC1C2C(=O)OC (configuration not stated) | – | – | inactive |

| SMILES | EC50 [µM] | IC50 | outcome |
| --- | --- | --- | --- |
| CCOP(=O)(OCC)/C(=C/c1cccs1)CC(C)=O | > 200 | > 200 µM | – |
| Cc1ccc(C(N)=O)cc1N=NN(C)C | > 457 | 269 µM | – |
| NC(=S)N/N=C1\C(=O)N(CCc2ccccc2)C(=O)C1C(=O)NCCc1ccccc1 (configuration not stated) | > 81.3 | 70.8 µM | – |
| CN(C)CCCNC(=O)c1cc(NC(=O)c2cc(NC(=O)c3cc(NC(=O)c4cccc(C(=O)Nc5cc(C(=O)Nc6cc(C(=O)Nc7cc(C(=O)NCCCN(C)C)n(C)c7)n(C)c6)n(C)c5)n4)cn3C)cn2C)cn1C | > 100 | > 100 µM | – |
| COc1ccc(C[C@H]2COC(=O)[C@@H]2Cc2ccc3c(c2)OCO3)cc1OC | > 200 | 19.1 µM | – |
| CN(C)c1cccc(/C=C(\C#N)c2ccccc2)c1 | > 200 | 0.339 µM | – |
| O=c1[nH]cnc2sc(Nc3ccccc3)nc12 | – | – | inactive |
| CC(=O)N(C(C)=O)c1c(N)n(C)c(=O)[nH]c1=O | – | – | inactive |
| CC(C)=C=CCN(C)Cc1ccccc1 | > 309 | > 309 µM | – |
| COC(=O)c1cc(C(=CC=O)c2cc(Cl)c(OC)c(C(=O)OC)c2)cc(Cl)c1OC | > 200 | 8.91 µM | – |
| CC1(C(=O)O)OC12CCCCC2 (configuration not stated) | > 200 | > 200 µM | – |
| C/C(O)=C(/C=N/C(N)=S)C(N)=O | – | – | inactive |
| CN(C)C(=S)N1C(=S)N(c2ccccc2)C(=Nc2ccccc2)C1=Nc1ccccc1 | > 200 | 170 µM | – |
| CCn1c(=O)c2c(=O)[nH][nH]c2c2ccccc21 | > 200 | > 200 µM | – |
| NC(=O)C1=NOC(C(N)=O)C1C1OC(CO)C(O)C1O (configuration not stated) | > 200 | > 200 µM | – |
| NNC(=O)C1C2c3ccccc3C(c3ccccc32)C1C(=O)NN (configuration not stated) | > 200 | > 200 µM | – |
| O=C1NCC2(CCNCC2)N1 | > 200 | > 200 µM | – |
| CO[C@@]12[C@@H]3N[C@@H]3CN1C1=C(C(=O)C(N(C)c3ccc(O)cc3)=C(C)C1=O)[C@@H]2COC(N)=O | > 200 | 1.35 µM | – |
| COc1cc(N=Nc2cc(S(=O)(=O)O)cc3cc(S(=O)(=O)O)cc(O)c23)c(C)cc1N=Nc1c(S(=O)(=O)O)cc2cc(Nc3ccccc3)ccc2c1O | – | – | inactive |
| OC1C2CN3CCN(C2)CC1(c1ccccc1)C3 (configuration not stated) | > 200 | > 200 µM | – |
| CC1(C)CC(=O)C2=C(C1)Nc1ccccc1NC2c1ccc([N+](=O)[O-])cc1 (configuration not stated) | > 200 | 29.5 µM | – |
| CCOC(=O)c1c(CN2CCNCC2)nc2ccc(Cl)cc2c1-c1ccccc1 | > 63.1 | 33.9 µM | – |

| SMILES | EC50 [µM] | IC50 | outcome |
| --- | --- | --- | --- |
| CC(C)COC(=O)c1ccc(N=Cc2ccc(C=Nc3ccc(C(=O)OCC(C)C)cc3)cc2)cc1 | > 10.7 | > 10.7 µM | – |
| CC(c1ccccc1)C(O)S(=O)(=O)O (configuration not stated) | – | – | inactive |
| CC(=O)O[C@@H]1C2CCC3C(CC[C@@]4(C)C3CC[C@@H]4C(C)N(C)C)[C@@]2(C)C[C@H](O)[C@@H]1NC(=O)c1ccccc1 (some centres not stated) | > 1.38 | > 1.38 µM | – |
| CC1=NN=C(N)NC1=CC(Sc1ccc(Cl)cc1)c1c(O)ccc2ccccc12 (configuration not stated) | > 200 | 11.2 µM | – |
| NNC(=S)NC1CC(c2ccccc2)Oc2ccccc21 (configuration not stated) | – | – | inactive |
| COc1ccc(N2C(=O)C3c4[nH]c5ccccc5c4C4CC(C)(C)CC(C)(C)C4C3C2=O)cc1 (configuration not stated) | > 4.37 | > 4.37 µM | – |
| CCN(CC)CCCCCCNc1cc(C)cc2cccnc12 | > 200 | 20.9 µM | – |
| CC1=NN(C(=O)c2cc(Cl)cc([N+](=O)[O-])c2)C(=O)C1N=Nc1ccccc1C(=O)O (configuration not stated) | – | – | inactive |
| O=C(O)c1ccccc1-c1c2ccc(=O)cc-2oc2cc(O)ccc12 | > 316 | 58.9 µM | – |
| COc1ccc(CNc2nc3cc(C(F)(F)F)ccc3nc2C(=O)O)cc1 | > 200 | 38.9 µM | – |
| C=C(C)[C@@H]1CC[C@]2(CNC(=O)CC3(CC(=O)O)CCCC3)CC[C@]3(C)[C@H](CC[C@@H]4[C@@]5(C)CC[C@H](NC(=O)CC6(CC(=O)O)CCCC6)C(C)(C)[C@@H]5CC[C@]43C)[C@@H]12 | > 200 | 13.5 µM | – |
| O=C(NS(=O)(=O)Nc1ccccc1)OC1CCCC1 | > 200 | > 200 µM | – |
| O=C(Nc1ccc(S(=O)(=O)Nc2ncccn2)cc1)c1ccc(C(=O)Nc2ccc(S(=O)(=O)Nc3ncccn3)cc2)cc1 | > 200 | > 200 µM | – |
| C#CC(O)/C=C/C(O)CCCC(O)CC#CC(O)C#CCCCCC(O)/C=C/CCCCCC(=O)CCCCCCCCCCCCCC(O)C(O)C#CC(=O)O (configuration not stated) | > 50.1 | 28.8 µM | – |
| CN1CCCC2(CCCc3ccccc32)C1 (configuration not stated) | > 1000 | 257 µM | – |
| NC1=NN(c2ccccc2)C(=O)C1/C(=N\NC(=O)c1cc2ccccc2cc1O)C(=O)Nc1cccc(C(F)(F)F)c1 (configuration not stated) | > 6.61 | > 6.61 µM | – |
| O=C(CCC(=O)C(C(=O)c1ccccc1)c1ccccc1)Nc1cccc(C(F)(F)F)c1 (configuration not stated) | – | – | inactive |
| CCOC(=O)/C(=C\c1ccc(Br)cc1)C(C)=O | > 120 | 70.8 µM | – |
| c1cc2cc3c4c5c(cc6ccc7cc8cc9c%10c8c8c7c6c5c8c5c%10c(c1C9N1CCOCCOCCOCCOCCOCC1)c2c45)C3 (configuration not stated) | > 100 | > 100 µM | – |
| O=S(=O)(O)c1cc(O)c2c(N=Nc3ccc(N=Nc4c(S(=O)(=O)O)cc5cc(Nc6ccccc6)ccc5c4O)c4ccccc34)cc(S(=O)(=O)O)cc2c1 | – | – | inactive |
